We go through two compounds from patent US7355074B2, “Compounds having aromatic rings and side-chain amide-functionality and a method for transporting monovalent anions across biological membranes using the same” (The University of Maryland, priority 2003, dated 2008).

Assay type in all cases: biochemical
Data set [1] can be described thus: liposome potential assay with safranin O. As to the method: FIG. 3 illustrates liposome potential assays. Suspension of EYPC LUVs in phosphate buffer was used (10 m M Nan H3-n PO4, n=1, 2, pH 6.4, 100 m M KCl or 75 m M Na2 H3-n PO4, n=1, 2, pH 6.4, 100 m M KCl or 75 m M NA2 SO4 inside and 100 m M NaCl, 60 nM safranin O, ex 480 nm, em 520 nm, outside). Legend for trace denotes the formation of potential in: —KCl vesicles upon application of valinmycin·Na2SO4 vesicles upon application of 3, —KCl vesicles upon application of 3, —Na2SO4 vesicles upon application of valinomycin.
Analysis of pH changes in the liposomes experiencing a CT gradient. a) Outwardly directed gradient of Cl:HPTS-loaded vesicles (100 μL of the stock solution), filled with a saline phosphate buffer (10 mM sodium phosphate, pH 6.4, 100 mM NaCl) were suspended in 1.9 mL of an isosmotic phosphate sulfate buffer (10 mM sodium phosphate, pH 6.0, 75 mM Na2SO4) and placed into a fluorimetric cell. The emission of HPTS at 510 nm was monitored with excitation wavelengths at 403 and 460 nm simultaneously. During the experiment, 20 μL of a 0-2 mM DMSO solution of the compound of interest was added through an injection port. Intravesicular pH values were obtained as described for pH-stat transport assays. At the end of experiment, the aqueous compartment of liposomes was equilibrated with extravesicular solution by lysis of liposomes with detergent (40 μL of 5% aqueous Triton X100). b) Inwardly directed gradient of Cl:HPTS-loaded vesicles (100 μL of the stock solution), filled with a isoosimomolar sulfate phosphate buffer (10 mM sodium phosphate, pH 6.0, 75 mM Na2SO4) were suspended in 1.9 mL of an isosmotic phosphate saline buffer (10 mM sodium phosphate, pH 6.4, 100 mM NaCl) and placed into a fluorimetric cell. Further analysis was conducted as described for the case of an outwardly directed gradient of […]. Analysis of the electrostatic potential on the surface of liposomes. LUVs (100 μL of stock solution, 100 mM KCl inside and outside or 75 mM Na2SO4 inside and outside) were suspended in 1.9 mL of 100 mM NaCl buffer containing 60 nM safranin O (a potential-sensitive dye). Safranin O emission was monitored at 580 nm with excitation at 520 nm. During the course of the experiment, 20 μL of a 0-0.12 mM DMSO solution of valinomycin or 0-2 mM of 3-8 DMSO solution was added. Experiments were completed by injection of 20 μL of 1 mM aqueous solution of the defect-inductive peptide melittin.

The nature of data set [2]: voltage-clamp experiments on black lipid membranes. The method, then:
FIG. 10(A) represents current events across a BLM in voltage clamp experiments after application of calixarene tetrabutylamide 2 ([…]). The voltage applied was −20 mV for all three recordings. (B) The distribution of conductance ranges observed in voltage clamp experiments with 2 acting as an ion channel.
The voltage-clamp assay was conducted using a setup with two chambers, each filled with an electrolyte solution and separated by a BLM. After voltage was applied across the membrane, a solution of 2 was added to one of the chambers. Subsequent current across the membrane was attributed to ion transport mediated by 2, since control experiments wit DMSO solvent were negative. The abrupt changes in current intensity (events) are consistent with an ion channel mechanism. The relatively long-lasting open states indicate that channels formed by calixarene tetrabutylamide 2 are stable.
Voltage-Clamp Experiments. […] Once calixarene tetrabutylamide 2 was incorporated into the lipid, the current through the membrane was recorded using both a chart recorder and directly digitized and stored as a computer file. The conductance values were calculated by dividing the current by the applied voltage. The events were grouped into conductance ranges of equal magnitude for the purpose of showing the distribution of recorded conductances.

A short description of data set [3]: calcein dye release assay (lytic potential). Particulars: 5-100 μM, 1-20 mol % ligand; LUVs containing 120 mM calcein. The method, then:
Calix[4]arene tetrabutylamide 2 may transport ions across LUVs by inducing membrane defects, by uniport of ions, or via cotransport of ion pairs ([…], M^− or OH^−/A^− antiport and H^+/A^− or M^+/OH^− symport mechanisms are possible). The lytic potential of 2 was evaluated using a dye release assay. The self-quenching dye calcein loses 95% of its fluorescence emission at concentrations above 100 mM. 2.
EYPC Calcein-Containing Vesicles: Calcein (224.1 mg, 0.36 mmol) was suspended in 3 mL of phosphate buffer (100 mM NaCl, 10 mM sodium phosphate, pH 6.4). The pH of the solution was adjusted to 6.4 with a 7.4 M NaOH-containing phosphate buffer, at which point all the calcein was dissolved to give a 120 mM solution of the dye. The molality of the extravesicular buffer was adjusted to equal that of the calcein-containing solution with 1 m NaCl. Osmomolality was determined by VPO. A thin film was prepared from 60 mg of EYPC ([…]) as described above. The lipid film was hydrated in 1.2 mL of the calcein buffer. During hydration, the suspension was submitted to five freeze-thaw cycles (dry ice in acetone, water at room temperature) and then submitted to high-pressure extrusion (2) extrusions through a 0.1 μm polycarbonate membrane afforded LUVs with an average diameter of 100 nm). […]

For the compound `CCCCNC(=O)COc1ccccc1Cc1cccc(Cc2ccccc2OCC(=O)NCCCC)c1OCC(=O)NCCCC` [trimer 3, Tris-(N-butyl-2-phenoxyacetamide)], the transmembrane potential formed entry in data set [1] (Na2SO4 inside, NaCl outside, safranin O outside, 1 mol %) was “stable negative charge inside liposomes”. Moreover, the “time to formation of the transmembrane potential” value in data set [1] (Na2SO4 inside, NaCl outside, 1 mol %) is at most 2 min. For the same compound, the “ability to create a transmembrane potential” value in data set [1] (Na2SO4 vesicles in NaCl buffer (conditions of the trimer)) is reported as “created transmembrane potential”. The “magnitude of the transmembrane potential” value in data set [1] (inwardly directed Cl− gradient, compared with valinomycin in liposomes with 100 mM KCl inside, 100 mM NaCl outside) is on record as “comparable to that generated by 0.12 mol % valinomycin”.
Take `CCCCNC(=O)COc1c2cccc1Cc1cccc(c1OCC(=O)NCCCC)Cc1cccc(c1OCC(=O)NCCCC)Cc1cccc(c1OCC(=O)NCCCC)C2` [calix[4]arene tetrabutylamide 2, Calix[4]arene tetrabutylamide]: in data set [2], the “stability of the channels (open states)” value was “stable”. The “centre of the conductance distribution” value in data set [2] (480 events, 1 M KCl) is around 100 pS. The “calcein fluorescence (membrane defects)” value in data set [3] is given as “no fluorescence enhancement”.
